Laboratory results taken from PubChem BioAssay (NCI).
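Five concentrations, 48 hours, 96-well plates. The concentration for full growth arrest is given as TGI.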

Experiments:
Test in all cases: NCI tumour cell line growth inhibition, 48 h
BT-549 breast = system: BT-549 breast
OVCAR-5 ovarian = system: OVCAR-5 ovarian
NCI-H460 lung = system: NCI-H460 lung
TK-10 renal = system: TK-10 renal
MOLT-4 leukemia = system: MOLT-4 leukemia
OVCAR-3 ovarian = system: OVCAR-3 ovarian
NCI-H522 lung = system: NCI-H522 lung
K-562 leukemia = system: K-562 leukemia
HOP-92 NSCLC = system: HOP-92 NSCLC
RXF 393 renal = system: RXF 393 renal
NCI-H23 lung = system: NCI-H23 lung
MALME-3M melanoma = system: MALME-3M melanoma
SNB-75 CNS = system: SNB-75 CNS
HL-60(TB) leukemia = system: HL-60(TB) leukemia
LOX IMVI melanoma = system: LOX IMVI melanoma
SF-268 CNS = system: SF-268 CNS
SR leukemia = system: SR leukemia
XF 498 CNS = system: XF 498 CNS
DMS 273 small cell lung = system: DMS 273 small cell lung
P388 leukemia = system: P388 leukemia

Row | Structure (SMILES) | TGI (BT-549 breast) [µM] | TGI (OVCAR-5 ovarian) [µM] | TGI (NCI-H460 lung) [µM] | TGI (TK-10 renal) [µM] | TGI (MOLT-4 leukemia) [µM] | TGI (OVCAR-3 ovarian) [µM] | TGI (NCI-H522 lung) [µM] | TGI (K-562 leukemia) [µM] | TGI (HOP-92 NSCLC) [µM] | TGI (RXF 393 renal) [µM] | TGI (NCI-H23 lung) [µM] | TGI (MALME-3M melanoma) [µM] | TGI (SNB-75 CNS) [µM] | TGI (HL-60(TB) leukemia) [µM] | TGI (LOX IMVI melanoma) [µM] | TGI (SF-268 CNS) [µM] | TGI (SR leukemia) [µM] | TGI (XF 498 CNS) [µM] | TGI (DMS 273 small cell lung) [µM] | TGI (P388 leukemia) [µM]
1 | CC(=O)O[C@H]1[C@@H](OC(C)=O)C(C)(C)/C=C/[C@H](C)C(=O)[C@@]2(OC(C)=O)C[C@@](C)(OC(C)=O)[C@H](OC(C)=O)[C@@H]2[C@H]2OC(=O)CC[C@@]2(OC(=O)c2ccccc2)[C@@H]1OCC(C)C | > 100 | > 100 | > 100 | > 100 | > 100 | > 100 | > 100 | > 100 | > 100 | > 100 | > 100 | > 100 | 66.2 | > 100 | > 100 | > 100 | – | – | – | –
2 | CCSc1nc(N)c2c(-c3ccccc3)c3c(nc2n1)CCC3 | > 100 | > 100 | > 100 | > 100 | > 100 | > 100 | – | > 100 | – | > 100 | > 100 | > 100 | > 100 | > 100 | > 100 | > 100 | > 100 | – | – | –
3 | NC1(C(=O)O)CCCC1 | – | > 625 | > 625 | – | > 625 | > 62.5 | > 625 | > 625 | > 625 | > 625 | > 625 | > 625 | > 625 | > 625 | > 625 | > 370 | – | 6.25 | > 625 | > 625
4 | CSCCC(NC(=O)OCc1ccccc1)NC(=O)OCc1ccccc1 | – | > 100 | > 100 | > 100 | > 100 | > 100 | > 100 | > 100 | > 100 | – | > 100 | – | > 100 | – | > 100 | – | > 100 | – | – | –
